Experimental data: US11076595B2, “1-(n,n-disubstituted carbamoyl) 4-(substituted sulfonyl)triazolin-5-one derivative, 4-(n,n-disubstituted carbamoyl) 1-(substituted sulfonyl)triazolin-5-one derivative, and herbicide containing said derivative as active ingredient” (HOKKO CHEMICAL INDUSTRY CO., LTD., priority 2017, dated 2021)

Key:
Type in all cases: in vivo
crabgrass = test: Test Example 14: herbicidal effect test by foliage treatment in upland field; details: 7 days after sowing, 120 g/10a, 14 days after treatment
Description: (§1) A pot having a size of 36 cm^2 was filled with field soil (alluvial soil) and after uniformly mixing the soil of the surface layer of 1 cm with 20 grains of each weed seed of crabgrass, Echinochloa crus-galli, Chenopodium album and Amaranthus viridis, the surface layer was pressed lightly. Seven Days after the sowing, an emulsifiable concentrate prepared according to Formulation Example 15 by using the compound shown in Table 12 below was diluted with water, and the water-diluted formulation was sprayed on the soil surface at a ratio of 100 liter per 10 are. The application rate of the active ingredient, by conversion, corresponded to 120 g per 10 are. Fourteen Days after the formulation treatment, the herbicidal effect was evaluated by the same criteria as in Test Example 11.

Chenopodium album = test: as above; details: 7 days after sowing, 120 g/10a, 14 days after treatment
Description: as §1

Scirpus juncoides [1] = test: Test Example 12: herbicidal effect test by treatment during growing period in paddy field; details: 120 g/10a; treatment seven days after sowing in flooded paddy pot; assessed 14 days after treatment
Procedure, shortened: (§2)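 Read-out: weed suppression (%) = (1 − treated/untreated mean dry weight) × 100, scored 14 days after treatment with two replications. Pots held puddled paddy soil, 30 seeds per species sown 0–1 cm, flooded ~3 cm. Post-emergence dropwise water application at 7 days after sowing, 120 g a.i./10 are.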

Monochoria vaginalis [2] = test: as above; details: 120 g/10a; treatment seven days after sowing in flooded paddy pot; assessed 14 days after treatment
Procedure, shortened: as §2

Echinochloa crus-galli [3] = test: as above; details: 120 g/10a; treatment seven days after sowing in flooded paddy pot; assessed 14 days after treatment
Procedure, shortened: as §2

Lindernia pyxidaria [4] = test: as above; details: 120 g/10a; treatment seven days after sowing in flooded paddy pot; assessed 14 days after treatment
Procedure, shortened: as §2

Amaranthus viridis = test: Test Example 14: herbicidal effect test by foliage treatment in upland field; details: 7 days after sowing, 120 g/10a, 14 days after treatment
Description: (§3) This test was performed with two replications per one formulation concentration plot, and 14 days after the formulation treatments, the weed suppression rate (%) was determined according to the following equation (Math. 2). Weed suppression rate (%)=(1−average dry weight (g) of plants in treated plots/average dry weight (g) of plants in untreated plots)×100 [Math. 2]
as §1

Echinochloa crus-galli [5] = test: as above; details: 7 days after sowing, 120 g/10a, 14 days after treatment
Description: as §3, §1

Scirpus juncoides [6] = test: Test Example 11: herbicidal effect test by soil treatment in paddy field; details: 120 g/10a active ingredient, 14 days after treatment
Procedure, shortened: (§4)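 Puddled paddy soil with N:P:K 17:17:17 fertilizer in Wagner pots; 30 seeds per species sown at 0–1 cm, flooded to about 3 cm, kept in a glass greenhouse. Water-diluted emulsifiable concentrate dripped in immediately after sowing at 120 g a.i. per 10 are. Suppression from dry weight versus untreated at 14 days.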

Monochoria vaginalis [7] = test: as above; details: 120 g/10a active ingredient, 14 days after treatment
Procedure, shortened: as §4

Echinochloa crus-galli [8] = test: as above; details: 120 g/10a active ingredient, 14 days after treatment
Procedure, shortened: as §4

Lindernia pyxidaria [9] = test: as above; details: 120 g/10a active ingredient, 14 days after treatment
Procedure, shortened: as §4

Row | Structure (SMILES) | herbicidal effect, Crabgrass (crabgrass) [%] | herbicidal effect, Chenopodium album (Chenopodium album) [%] | Weed suppression rate (%) Scirpus juncoides (Scirpus juncoides [1]) [%] | Weed suppression rate (%) Monochoria vaginalis (Monochoria vaginalis [2]) [%] | Weed suppression rate (%) Echinochloa crus-galli (Echinochloa crus-galli [3]) [%] | Weed suppression rate (%) Lindemia pyxidaria (Lindernia pyxidaria [4]) [%] | herbicidal effect, Amaranthus viridis (Amaranthus viridis) [%] | herbicidal effect, Echinochloa crus-galli (Echinochloa crus-galli [5]) [%] | Weed suppression rate (%) Scirpus juncoides (Scirpus juncoides [6]) [%] | Weed suppression rate (%) Monochoria vaginalis (Monochoria vaginalis [7]) [%] | Weed suppression rate (%) Echinochloa crus-galli (Echinochloa crus-galli [8]) [%] | Weed suppression rate (%) Lindemia pyxidaria (Lindernia pyxidaria [9]) [%]
1 | CC(C)N(C(=O)n1cnn(S(=O)(=O)C2CCCCC2)c1=O)c1c(F)c(F)cc(F)c1F [Compound 11-299] | 100 | 60 | 100 | 100 | 100 | 80 | 60 | 100 | 100 | 70 | 100 | 100
2 | CC(C)N(C(=O)n1cnn(S(=O)(=O)c2c(F)c(F)c(F)c(F)c2F)c1=O)c1c(F)cc(F)cc1F [Compound 11-815] | 100 | 80 | 70 | 70 | 100 | 80 | 70 | 70 | 100 | 80 | 100 | 100
3 | CC(C)N(C(=O)n1cnn(S(=O)(=O)C(C)C)c1=O)c1ccc(Cl)cc1F [Compound 11-67] | 90 | 60 | 90 | 90 | 100 | 90 | 60 | 90 | 90 | 90 | 100 | 90
4 | Cc1ccc(S(=O)(=O)n2ncn(C(=O)N(c3c(F)cc(F)cc3F)C(C)C)c2=O)cc1 [Compound 11-641] | 90 | 70 | 100 | 90 | 100 | 80 | 60 | 100 | 100 | 80 | 100 | 100
5 | CC(C)N(C(=O)n1cnn(S(=O)(=O)c2ccc(C(C)(C)C)cc2)c1=O)c1c(F)cc(F)cc1F [Compound 11-686] | 90 | 60 | 100 | 70 | 90 | 60 | 30 | 90 | 100 | 80 | 90 | 100
6 | CC(C)N(C(=O)n1cnn(S(=O)(=O)C2CC2)c1=O)c1ccc(Cl)cc1F [Compound 11-206] | 90 | 60 | 90 | 90 | 100 | 90 | 60 | 90 | 100 | 100 | 100 | 100
7 | CC(C)N(C(=O)n1cnn(S(=O)(=O)c2ccccc2F)c1=O)c1ccccc1 [Compound 11-391] | 90 | 40 | 80 | 80 | 90 | 80 | 40 | 60 | 80 | 60 | 90 | 80
8 | CC(C)N(C(=O)n1cnn(S(=O)(=O)C2CCCCC2)c1=O)c1cccc(F)c1 [Compound 11-285] | 90 | 80 | 90 | 80 | 90 | 80 | 90 | 80 | 90 | 80 | 90 | 80
9 | CC(C)N(C(=O)n1cnn(S(=O)(=O)c2cccs2)c1=O)c1ccccc1 [Compound 11-1011] | 90 | 80 | 90 | 80 | 90 | 80 | 90 | 80 | 90 | 80 | 90 | 80
10 | CC(C)N(C(=O)n1cnn(S(=O)(=O)c2cccs2)c1=O)c1ccc(Br)cc1Cl [Compound 11-1033] | 90 | 60 | 100 | 100 | 100 | 100 | 60 | 90 | 100 | 90 | 100 | 100
11 | O=C(N(CC(F)(F)F)c1ccc(F)cc1F)n1cnn(S(=O)(=O)C2CC2)c1=O [Compound 11-144] | 80 | 60 | 100 | 100 | 100 | 100 | 80 | 80 | 100 | 80 | 100 | 90
12 | CC(C)N(C(=O)n1cnn(S(=O)(=O)c2cccs2)c1=O)c1ccc(F)c(F)c1F [Compound 11-1025] | 100 | 60 | 100 | 100 | 100 | 80 | 60 | 100 | 100 | 100 | 100 | 100
13 | Cc1cc(Cl)ccc1N(C(=O)n1cnn(S(=O)(=O)C(C)C)c1=O)C(C)C [Compound 11-74] | 90 | 80 | 90 | 80 | 90 | 80 | 90 | 80 | 90 | 80 | 90 | 80
